From patent US4539150A, “Benzothiazepine derivatives and their methods of preparation” (Mitsui Toatsu Chemicals, Inc., priority 1983, dated 1985)
Where a name gives a salt, the structure may show the parent alone.

Tests used:
[1] = biological target: T1, angiotensin converting enzyme (ACE) (Oryctolagus cuniculus, UniProt P12822); assay: in vitro evaluation of inhibitory effects on ACE activity (method of Cushman); type: biochemical; conditions: ACE isolated from rabbit lungs; for IC50: Table 1, in vitro
T1 construct: Using ACE isolated from rabbit lungs; from tissue; host or cells: rabbit lungs
T1 sequence (P12822 34-1310): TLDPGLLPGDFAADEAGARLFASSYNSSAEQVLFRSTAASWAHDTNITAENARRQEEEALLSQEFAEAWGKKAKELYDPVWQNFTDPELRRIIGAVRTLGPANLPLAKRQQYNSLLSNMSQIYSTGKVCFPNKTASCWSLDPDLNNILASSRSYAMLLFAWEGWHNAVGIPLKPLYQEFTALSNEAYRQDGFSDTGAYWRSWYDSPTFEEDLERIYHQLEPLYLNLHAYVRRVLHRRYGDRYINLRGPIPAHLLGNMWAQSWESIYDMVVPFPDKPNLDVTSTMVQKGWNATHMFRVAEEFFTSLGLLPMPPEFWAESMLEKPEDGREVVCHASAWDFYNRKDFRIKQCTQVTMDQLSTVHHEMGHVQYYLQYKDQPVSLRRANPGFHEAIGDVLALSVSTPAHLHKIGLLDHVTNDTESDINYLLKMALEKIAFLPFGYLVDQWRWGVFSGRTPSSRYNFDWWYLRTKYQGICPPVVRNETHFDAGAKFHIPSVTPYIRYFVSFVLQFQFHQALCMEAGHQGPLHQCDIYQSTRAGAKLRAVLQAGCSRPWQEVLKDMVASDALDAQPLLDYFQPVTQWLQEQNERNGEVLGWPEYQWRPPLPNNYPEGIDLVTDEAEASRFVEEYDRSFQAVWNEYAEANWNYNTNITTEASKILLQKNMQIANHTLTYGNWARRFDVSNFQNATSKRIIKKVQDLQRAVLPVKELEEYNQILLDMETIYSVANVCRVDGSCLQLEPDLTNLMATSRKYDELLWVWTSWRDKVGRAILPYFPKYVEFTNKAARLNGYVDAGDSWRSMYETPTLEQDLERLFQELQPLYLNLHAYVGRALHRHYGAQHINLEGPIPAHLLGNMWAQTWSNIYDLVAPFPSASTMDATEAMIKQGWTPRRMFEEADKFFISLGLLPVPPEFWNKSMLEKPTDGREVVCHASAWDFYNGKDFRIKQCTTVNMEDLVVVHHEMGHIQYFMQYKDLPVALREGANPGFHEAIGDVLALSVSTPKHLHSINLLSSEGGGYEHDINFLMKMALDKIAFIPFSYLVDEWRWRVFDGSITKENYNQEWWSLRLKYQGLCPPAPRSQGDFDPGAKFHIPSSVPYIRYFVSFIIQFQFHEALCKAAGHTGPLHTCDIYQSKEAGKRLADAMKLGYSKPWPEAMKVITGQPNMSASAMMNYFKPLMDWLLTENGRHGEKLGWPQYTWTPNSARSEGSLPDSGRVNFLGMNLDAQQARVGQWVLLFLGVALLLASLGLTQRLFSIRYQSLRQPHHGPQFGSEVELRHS
Method: The efficacy of the compounds of the present invention can be tested by evaluating their inhibitory effects on the angiotensin converting enzyme (ACE). Using ACE isolated from rabbit lungs, in vitro evaluation of inhibitory effects on ACE activity was carried out according to the method of Cushman [Biochem. Pharmacol., 20, 1637(1971)]. […] Some of the compounds obtained in the other examples were also tested by in vitro evaluation of inhibitory effects on ACE activity and the results thus obtained are summarized in Table 1.

[2] = tested on: spontaneously occurring hypertensive rats (SHR); assay: depressor effect after oral administration in spontaneously occurring hypertensive rats (SHR), systolic blood pressure of caudal artery; type: in vivo, rat; conditions: 50 mg/kg oral, unanesthetized male SHR
Method: The compounds of the present invention can also be tested by evaluating their depressor effects. Such evaluation was carried out by using spontaneously occurring hypertensive rats (SHR). Male rats, aged 20 weeks or more, were fasted for 17 hours. Then, under an unanesthetized condition, the systolic blood pressure of their caudal artery was nonsurgically measured before medication as well as 2,4,6 and 24 hours after medication. Test compounds were orally administered to groups of 3-5 rats showing a systolic blood pressure of 180 mmHg or above.
When the compound of Example 10 was orally administered in a dose of 50 mg/kg, the blood pressure was reduced by 26, 34 and 46 mmHg after the lapse of 2, 4 and 6 hours, respectively.

## O=C(O)CN1C(=O)C(NC(CCc2ccccc2)C(=O)O)CSc2ccccc21 (stereo not drawn) [Example 8, 3-(1-carboxy-3-phenylpropylamino)-5-carboxymethyl-2,3-dihydro-1,5-benzothiazepin-4(5H)-one]
[1]; 0.01 μM, read-out: inhibited ACE activity
  inhibition at 0.01 µM: 14.8%
[1]; 0.1 μM, read-out: inhibited ACE activity
  inhibition at 0.1 µM: 77.8%

## CCOC(=O)C(CCc1ccccc1)NC1CSc2ccccc2N(CC(=O)O)C1=O.Cl (stereo not drawn) [Example 10, 5-carboxymethyl-3-(1-ethoxycarbonyl-3-phenylpropylamino)-2,3-dihydro-1,5-benzothiazepin-4(5H)-one hydrochloride]
[2]; 24 hours
  depressor effect, persistence: found to persist even after 24 hours
[2]; after 2 hours
  blood pressure was reduced by: 26 mmHg
[2]; after 4 hours
  blood pressure was reduced by: 34 mmHg
[2]; after 6 hours
  blood pressure was reduced by: 46 mmHg

## CCOC(=O)C(C)NC1CSc2ccccc2N(CC(=O)O)C1=O (stereo not drawn) [Example 12, 5-carboxymethyl-3-(1-ethoxycarbonylethylamino)-2,3-dihydro-1,5-benzothiazepin-4(5H)-one hydrochloride]
[1]
  IC50: 7000 nM

## CC(NC1CSc2ccccc2N(CC(=O)O)C1=O)C(=O)O (stereo not drawn) [Example 13, 5-carboxymethyl-3-(1-carboxyethylamino)-2,3-dihydro-1,5-benzothiazepin-4(5H)-one hydrochloride]
[1]
  IC50: 470 nM

## CCOC(=O)CNC1CSc2ccccc2N(CC(=O)O)C1=O (stereo not drawn) [Example 15, 5-carboxymethyl-3-ethoxycarbonylmethylamino-2,3-dihydro-1,5-benzothiazepin-4(5H)-one hydrochloride]
[1]
  IC50: > 100000 nM

## O=C(O)CNC1CSc2ccccc2N(CC(=O)O)C1=O (stereo not drawn) [Example 16, 5-carboxymethyl-3-carboxymethylamino-2,3-dihydro-1,5-benzothiazepin-4(5H)-one hydrochloride]
[1]
  IC50: 8200 nM

## CCCCCCCCC(NC1CSc2ccccc2N(CC(=O)O)C1=O)C(=O)OCC (stereo not drawn) [Example 18, 5-carboxymethyl-3-(1-ethoxycarbonylnonylamino)-2,3-dihydro-1,5-benzothiazepin-4(5H)-one]
[1]
  IC50: 160 nM

## CCCCCCCCC(NC1CSc2ccccc2N(CC(=O)O)C1=O)C(=O)O (stereo not drawn) [Example 19, 5-carboxymethyl-3-(1-carboxynonylamino)-2,3-dihydro-1,5-benzothiazepin-4(5H)-one]
[1]
  IC50: 10 nM
